The assay deals with T1, human full-length recombinant PKC βII (Homo sapiens, UniProt P05771).
T1 construct: Active human full-length recombinant PKC βII; purchased Invitrogen GmbH, Darmstadt, Germany
T1 sequence (P05771 1-673 isoform P05771-2): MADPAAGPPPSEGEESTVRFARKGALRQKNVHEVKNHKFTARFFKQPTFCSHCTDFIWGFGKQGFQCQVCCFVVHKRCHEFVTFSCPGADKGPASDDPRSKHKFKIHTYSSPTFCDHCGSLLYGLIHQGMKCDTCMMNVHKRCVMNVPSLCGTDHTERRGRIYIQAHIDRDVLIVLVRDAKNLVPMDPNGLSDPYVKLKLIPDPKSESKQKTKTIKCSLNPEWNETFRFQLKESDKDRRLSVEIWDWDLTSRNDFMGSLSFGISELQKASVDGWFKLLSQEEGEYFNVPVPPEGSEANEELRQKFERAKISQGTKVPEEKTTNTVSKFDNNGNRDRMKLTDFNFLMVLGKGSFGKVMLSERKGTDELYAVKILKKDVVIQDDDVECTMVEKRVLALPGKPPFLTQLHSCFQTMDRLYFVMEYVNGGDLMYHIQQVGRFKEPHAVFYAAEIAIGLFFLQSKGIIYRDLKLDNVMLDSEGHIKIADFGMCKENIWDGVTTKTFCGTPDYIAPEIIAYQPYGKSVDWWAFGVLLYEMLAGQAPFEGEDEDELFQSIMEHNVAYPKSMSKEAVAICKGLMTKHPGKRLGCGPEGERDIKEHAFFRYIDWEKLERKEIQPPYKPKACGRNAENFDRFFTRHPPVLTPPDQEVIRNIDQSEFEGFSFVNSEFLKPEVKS
Nature of the assay: Determination of PKC βII inhibition (Caliper mobility shift kinase assay). Type of assay: biochemical. The conditions noted are these: final compound concentration 1.14 μM (±0.15 μM); 60 min incubation at 32° C. The procedure:
Determination of PKC βII Inhibition
PKC βII inhibition was determined according to the following protocol:
Active human full-length recombinant PKC βII and the peptide substrate, Fluorescein-RFARKGSLRQKNV, were purchased from Invitrogen GmbH, Darmstadt, Germany. Adenosine-5′-triphosphate (ATP), bovine serum albumine (BSA), dimethylsulphoxide (DMSO), 4-(2-hydroxyethyl)piperazine-1-ethanesulfonic acid (Hepes), Triton X-100, 1,2-Dioleoyl-sn-glycerol (DAG), L-α-Phosphatidyl-L-serine (PS), calcium chloride (CaCl2), and Pluronic F-68 were purchased from Sigma-Aldrich, Munich, Germany. Magnesium chloride, 1 M sodium hydroxide solution, 1M hydrochloric acid solution and EDTA were obtained from Merck Biosciences, Darmstadt, Germany.
Test compounds were diluted to three times the test concentration in buffer 1 (30 mM Hepes-NaOH, pH 7.4, 0.01% Pluronic F-68 and 3% (v/v) DMSO). The […] enzyme was diluted to a concentration of 30 ng/ml in buffer 2 (30 mM Hepes-NaOH, pH 7.4, 15 mM MgCl2, 150 μM CaCl2, 150 μg/ml PS, 60 μg/ml DAG, and 0.045% (w/v) Triton X-100). The peptide substrate and ATP were diluted to concentrations of 3 μM and 120 μM, respectively, in buffer 2. Two μl of the compound solution were mixed with 2 μl of the diluted enzyme in a 384-well small volume microtiter plate (Greiner, Bio-One, Frickenhausen, Germany), and the kinase reaction was initiated by addition of 2 μl of the solution containing peptide substrate and ATP. After 60 min incubation at 32° C., the reaction was stopped by addition of 20 μl of a solution containing 130 mM Hepes-NaOH, pH 7.4, 0.0195% (v/v) Brij-35, 6.5 mM EDTA, 0.13% chip coating reagent 3 (Caliper Lifescience Inc, Hopkinton, Mass.) and 6.5% (v/v) DMSO. Phosphorylation of the substrate peptide was then detected on a Caliper 3000 instrument essentially as described by Pommereau et al (J. Biomol. Screening 2004, 9(5), 409-416). Separation conditions were as follows: Pressure −0.8 psi, upstream voltage −3000 V, downstream voltage −800 V. Positive controls (buffer 1 instead of compound) and negative controls (buffer 1 instead of compound and buffer 2 instead of kinase solution) were run in parallel on each plate. Fractional turnover (R) was determined as the height of the peak of the phosphorylated peptide product divided by the sum of the unphosphorylated substrate and phosphorylated product peak heights. Percent-inhibition values for the test compounds were determined using the formula % Inhibition=100*(1−(Rcompound−Rnegative control)/(Rpositive control−Rnegative control).
In the following table % inhibition values observed with example compounds at a final concentration of 1.14 μM (±0.15 μM) are listed: […]
For orientation: inhibition means the change of the read-out against control, counted positive when it falls. With `Cc1n[nH]c2nc(-c3ccc(O)cc3F)cc(CN3CC(C)(C)NCC3C(C)C)c12` (stereo not shown) [Example 37, 3-Fluoro-4-[4-(2-isopropyl-5,5-dimethyl-piperazin-1-ylmethyl)-3-methyl-1H pyrazolo[3,4-b]pyridin-6-yl]-phenol], the inhibition at 1.14 µM worked out at 94%.
In the case of `Cc1n[nH]c2nc(-c3ccc(O)cc3F)cc(CN3CC(C)(C)NCC3C)c12` (stereo not shown) [Example 38, 3-Fluoro-4-[3-methyl-4-(2,5,5-trimethyl-piperazin-1-ylmethyl)-1H-pyrazolo[3,4-b]pyridin-6-yl]-phenol] it was 99%.
Then `CCC1CNC(C)(C)CN1Cc1cc(-c2ccc(O)cc2F)nc2[nH]nc(C)c12` (stereo not shown) [Example 39, 4-[4-(2-Ethyl-5,5-dimethyl-piperazin-1-ylmethyl)-3-methyl-1H-pyrazolo[3,4-b]pyridin-6-yl]-3-fluoro-phenol], with 100%; and `Cc1n[nH]c2nc(-c3ccc(O)cc3)cc(CN3CCNCC34CC4)c12` [Example 40, 4-[4-(4,7-Diaza-spiro[2.5]oct-4-ylmethyl)-3-methyl-1H-pyrazolo[3,4-b]pyridin-6-yl]-phenol], with 97%; and `Cc1n[nH]c2nc(-c3ccc(O)cc3)cc(CN3CCNCC3c3ccccc3)c12` (stereo not shown) [Example 41, 4-[3-Methyl-4-(2-phenyl-piperazin-1-ylmethyl)-1H-pyrazolo[3,4-b]pyridin-6-yl]-phenol], with 93%.
In the case of `Cc1n[nH]c2nc(-c3ccc(O)cc3)cc(CN3CCNCC3c3ccc(F)cc3)c12` (stereo not shown) [Example 42, 4-{4-[2-(4-Fluoro-phenyl)-piperazin-1-ylmethyl]-3-methyl-1H-pyrazolo[3,4-b]pyridin-6-yl}-phenol] it was 94%.
Take `Cc1n[nH]c2nc(-c3ccc(O)cc3)cc(CN3CCNCC3c3ccc(C(F)(F)F)cc3)c12` (stereo not shown) [Example 44, 4-{3-Methyl-4-[2-(4-trifluoromethyl-phenyl)-piperazin-1-ylmethyl]-1H-pyrazolo[3,4-b]pyridin-6-yl}-phenol]: the inhibition at 1.14 µM amounted to 38%.
In the case of `Cc1n[nH]c2nc(-c3ccc(O)cc3)cc(CN3CCNCC3c3ccc(C(C)C)cc3)c12` (stereo not shown) [Example 45, 4-{4-[2-(4-Isopropyl-phenyl)-piperazin-1-ylmethyl]-3-methyl-1H-pyrazolo[3,4-b]pyridin-6-yl}-phenol] it was 54%; in that of `CCC1(NCc2cc(-c3ccc(O)cc3)nc3[nH]nc(C)c23)CCCNC1` (stereo not shown) [Example 46, 4-{4-[(3-Ethyl-piperidin-3-ylamino)-methyl]-3-methyl-1H-pyrazolo[3,4-b]pyridin-6-yl} phenol], 90%; in that of `Cc1n[nH]c2nc(-c3ccc(O)cc3)cc(CN3CCNCC34CCCC4)c12` [Example 47, 4-[4-(6,9-Diaza-spiro[4.5]dec-6-ylmethyl)-3-methyl-1H-pyrazolo[3,4-b]pyridin-6-yl]-phenol], 101%.
Regarding `Cc1n[nH]c2nc(-c3ccc(O)cc3)cc(CN3CC(C)NCC3(C)C)c12` (stereo not shown) [Example 48, 4-[3-Methyl-4-(2,2,5-trimethyl-piperazin-1-ylmethyl)-1H-pyrazolo-[3,4-b]pyridin-6-yl]-phenol], the inhibition at 1.14 µM was 99%.
In the case of `Cc1n[nH]c2nc(-c3ccc(O)cc3)cc(CN3CC(C)(C)NCC3(C)C)c12` [Example 49, 4-[3-Methyl-4-(2,2,5,5-tetramethyl-piperazin-1-ylmethyl)-1H-pyrazolo[3,4-b]pyridin-6-yl]-phenol] it was 95%.
Then `CCC1(C)CNC(C)(C)CN1Cc1cc(-c2ccc(O)cc2)nc2[nH]nc(C)c12` (stereo not shown) [Example 50, 4-[4-(2-Ethyl-2,5,5-trimethyl-piperazin-1-ylmethyl)-3-methyl-1H-pyrazolo[3,4-b]pyridin-6-yl]-phenol], with 96%; and `CCC1(CC)CNC(C)(C)CN1Cc1cc(-c2ccc(O)cc2)nc2[nH]nc(C)c12` [Example 51, 4-[4-(2,2-Diethyl-5,5-dimethyl-piperazin-1-ylmethyl)-3-methyl-1H-pyrazolo[3,4-b]pyridin-6-yl]-phenol], with 98%; and `Cc1n[nH]c2nc(-c3ccc(O)cc3)cc(CN3CC(C)(C)NCC3C)c12` (stereo not shown) [Example 52, 4-[3-Methyl-4-(2,5,5-trimethyl-piperazin-1-ylmethyl)-1H-pyrazolo[3,4-b]pyridin-6-yl]-phenol], with 91%.
`CCC1CNC(C)(C)CN1Cc1cc(-c2ccc(O)cc2)nc2[nH]nc(C)c12` (stereo not shown) [Example 53, 4-[4-(2-Ethyl-5,5-dimethyl-piperazin-1-ylmethyl)-3-methyl-1H-pyrazolo[3,4-b]pyridin-6-yl]-phenol]: the inhibition at 1.14 µM was determined as 99%.
Then `Cc1n[nH]c2nc(-c3ccc(O)cc3)cc(CN3C[C@@H](C)NC[C@@H]3C)c12` [Example 54, 4-[4-((2S,5R)-2,5-Dimethyl-piperazin-1-ylmethyl)-3-methyl-1H-pyrazolo[3,4-b]pyridin-6-yl]-phenol], with 98%.
Consider `Cc1n[nH]c2nc(-c3ccc(O)cc3F)cc(CN3CCNC(C)(C)C3)c12` [Example 55, 4-[4-(3,3-Dimethyl-piperazin-1-ylmethyl)-3-methyl-1H-pyrazolo[3,4-b]pyridin-6-yl]-3-fluoro-phenol], for which the inhibition at 1.14 µM was 86%.
Take `Cc1n[nH]c2nc(-c3ccc(O)cc3F)cc(CN3CC(C)(C)OCC3(C)C)c12` [Example 56, 3-Fluoro-4-[3-methyl-4-(2,2,5,5-tetramethyl-morpholin-4-ylmethyl)-1H-pyrazolo[3,4-b]pyridin-6-yl]-phenol]: the inhibition at 1.14 µM was found to be 85%.
Then `CCC1(C)CN(Cc2cc(-c3ccc(O)cc3)nc3[nH]nc(C)c23)C(C)(C)CN1` (stereo not shown) [Example 57, 4-[4-(5-Ethyl-2,2,5-trimethyl-piperazin-1-ylmethyl)-3-methyl-1H-pyrazolo[3,4-b]pyridin-6-yl]-phenol], with 93%; and `CCC1(CC)CN(Cc2cc(-c3ccc(O)c(F)c3)nc3[nH]nc(C)c23)C(C)(C)CN1` [Example 58, 4-[4-(5,5-Diethyl-2,2-dimethyl-piperazin-1-ylmethyl)-3-methyl-1H-pyrazolo[3,4-b]pyridin-6-yl]-2-fluoro-phenol], with 91%.
Then `CCC1(CC)CN(Cc2cc(-c3ccc(O)cc3Cl)nc3[nH]nc(C)c23)C(C)(C)CN1` [Example 59, 3-Chloro-4-[4-(5,5-diethyl-2,2-dimethyl-piperazin-1-ylmethyl)-3-methyl-1H-pyrazolo[3,4-b]pyridin-6-yl]-phenol], with 96%; and `Cc1n[nH]c2nc(-c3ccc(O)cc3)cc(CNC3CCNCC3(C)C)c12` (stereo not shown) [Example 60, 4-{4-[(3,3-Dimethyl-piperidin-4-ylamino)-methyl]-3-methyl-1H-pyrazolo[3,4-b]pyridin-6-yl}-phenol], with 92%.
Then `Cc1n[nH]c2nc(-c3ccc(O)cc3)cc(CN3CC(C)N(Cc4cccnc4)CC3(C)C)c12` (stereo not shown) [Example 61, 4-[3-Methyl-4-(2,2,5-trimethyl-4-pyridin-3-ylmethyl-piperazin-1-ylmethyl)-1H-pyrazolo[3,4-b]pyridin-6-yl]-phenol], with 84%; and `Cc1n[nH]c2nc(-c3ccc(O)cc3)cc(CN3CC(C)N(CC4CCCO4)CC3(C)C)c12` (stereo not shown) [Example 62, 4-{3-Methyl-4-[2,2,5-trimethyl-4-(tetrahydro-furan-2-ylmethyl)-piperazin-1-ylmethyl]-1H-pyrazolo[3,4-b]pyridin-6-yl}-phenol], with 99%.

The values above are taken from patent US9133181B2, “Substituted 6-(4-hydroxy-phenyl)-1H-pyrazolo[3,4-b]pyridine derivatives as kinase inhibitors” (SANOFI, priority 2012, dated 2015).
